According to publication PMC12313340, “Functional analysis of a UDP-glucosyltransferase gene contributing to biosynthesis of the flavonol triglycoside in tea plants” (Horticulture Research, 2025):

Tests used:
CsFGT (rCsFGT) [1] = molecular target: T1, CsFGT (rCsFGT) (Camellia sinensis, UniProt A0A0X9FCW5, Q352A); assay: product formation by HPLC; type: biochemical; settings: co-substrate UDP-glc
T1 construct: gene UGT91Q1; N-terminal 6xHis-trigger factor fusion (pCold-TF), about 105 kDa; E. coli Origami (DE3); tag not removed for kinetics
T1 sequence (A0A0X9FCW5 entry or part of it Q352A): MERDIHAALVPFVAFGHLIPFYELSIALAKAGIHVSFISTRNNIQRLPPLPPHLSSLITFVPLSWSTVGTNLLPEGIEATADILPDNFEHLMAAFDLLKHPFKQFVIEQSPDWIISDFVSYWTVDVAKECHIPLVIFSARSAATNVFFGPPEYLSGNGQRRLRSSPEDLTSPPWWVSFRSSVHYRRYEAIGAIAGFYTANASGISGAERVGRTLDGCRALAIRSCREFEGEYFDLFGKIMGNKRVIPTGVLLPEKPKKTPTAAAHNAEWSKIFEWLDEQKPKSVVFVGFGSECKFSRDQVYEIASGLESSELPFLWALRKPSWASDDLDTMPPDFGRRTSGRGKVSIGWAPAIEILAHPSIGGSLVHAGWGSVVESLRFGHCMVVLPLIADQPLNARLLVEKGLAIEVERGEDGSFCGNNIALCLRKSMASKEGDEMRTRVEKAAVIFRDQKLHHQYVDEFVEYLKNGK

CsFGT (rCsFGT) [2] = molecular target: T2, CsFGT (rCsFGT) (Camellia sinensis, UniProt A0A0X9FCW5, G290A); assay: product formation by HPLC; type: biochemical; settings: co-substrate UDP-glc
T2 construct: gene UGT91Q1; N-terminal 6xHis-trigger factor fusion (pCold-TF), about 105 kDa; E. coli Origami (DE3); tag not removed for kinetics
T2 sequence (A0A0X9FCW5 entry or part of it G290A): as the sequence (A0A0X9FCW5 entry or part of it Q352A) above, with G290A, A352Q counted along it

CsFGT (rCsFGT) [3] = molecular target: T3, CsFGT (rCsFGT) (Camellia sinensis, UniProt A0A0X9FCW5, S291G); assay: product formation by HPLC; type: biochemical; settings: co-substrate UDP-glc
T3 construct: gene UGT91Q1; N-terminal 6xHis-trigger factor fusion (pCold-TF), about 105 kDa; E. coli Origami (DE3); tag not removed for kinetics
T3 sequence (A0A0X9FCW5 entry or part of it S291G): as the sequence (A0A0X9FCW5 entry or part of it Q352A) above, with S291G, A352Q counted along it

CsFGT (rCsFGT) [4] = molecular target: T4, CsFGT (rCsFGT) (Camellia sinensis, UniProt A0A0X9FCW5, Q352I); assay: product formation by HPLC; type: biochemical; settings: co-substrate UDP-glc
T4 construct: gene UGT91Q1; N-terminal 6xHis-trigger factor fusion (pCold-TF), about 105 kDa; E. coli Origami (DE3); tag not removed for kinetics
T4 sequence (A0A0X9FCW5 entry or part of it Q352I): as the sequence (A0A0X9FCW5 entry or part of it Q352A) above, with A352I counted along it

CsFGT (rCsFGT) [5] = molecular target: T5, CsFGT (rCsFGT) (Camellia sinensis, UniProt A0A0X9FCW5, E292T); assay: product formation by HPLC; type: biochemical; settings: co-substrate UDP-glc
T5 construct: gene UGT91Q1; N-terminal 6xHis-trigger factor fusion (pCold-TF), about 105 kDa; E. coli Origami (DE3); tag not removed for kinetics
T5 sequence (A0A0X9FCW5 entry or part of it E292T): as the sequence (A0A0X9FCW5 entry or part of it Q352A) above, with E292T, A352Q counted along it

CsFGT (rCsFGT) [6] = molecular target: T6, CsFGT (rCsFGT) (Camellia sinensis, UniProt A0A0X9FCW5, R319N); assay: product formation by HPLC; type: biochemical; settings: co-substrate UDP-glc
T6 construct: gene UGT91Q1; N-terminal 6xHis-trigger factor fusion (pCold-TF), about 105 kDa; E. coli Origami (DE3); tag not removed for kinetics
T6 sequence (A0A0X9FCW5 entry or part of it R319N): as the sequence (A0A0X9FCW5 entry or part of it Q352A) above, with R319N, A352Q counted along it

CsFGT (rCsFGT) [7] = molecular target: T7, CsFGT (rCsFGT) (Camellia sinensis, UniProt A0A0X9FCW5, E292Q); assay: product formation by HPLC; type: biochemical; settings: co-substrate UDP-glc
T7 construct: gene UGT91Q1; N-terminal 6xHis-trigger factor fusion (pCold-TF), about 105 kDa; E. coli Origami (DE3); tag not removed for kinetics
T7 sequence (A0A0X9FCW5 entry or part of it E292Q): as the sequence (A0A0X9FCW5 entry or part of it Q352A) above, with E292Q, A352Q counted along it

CsFGT (rCsFGT) [8] = molecular target: T8, CsFGT (rCsFGT) (Camellia sinensis, UniProt A0A0X9FCW5, R319P); assay: product formation by HPLC; type: biochemical; settings: co-substrate UDP-glc
T8 construct: gene UGT91Q1; N-terminal 6xHis-trigger factor fusion (pCold-TF), about 105 kDa; E. coli Origami (DE3); tag not removed for kinetics
T8 sequence (A0A0X9FCW5 entry or part of it R319P): as the sequence (A0A0X9FCW5 entry or part of it Q352A) above, with R319P, A352Q counted along it

[9] = substrate: C[C@@H]1O[C@@H](OC[C@H]2O[C@@H](Oc3c(-c4ccc(O)c(O)c4)oc4cc(O)cc(O)c4c3=O)[C@H](O)[C@@H](O)[C@@H]2O)[C@H](O)[C@H](O)[C@H]1O; assay: UDP-Glo glycosyltransferase assay, Michaelis-Menten fit; type: biochemical, Camellia sinensis; settings: 1 mM UDP-glucose, 50 mM phosphate pH 8.0, 30°C, 10 min
Source text: (§1) UDP-Glo glycosyltransferase assay, Michaelis-Menten fit on CsFGT (rCsFGT)

[10] = substrate: Oc1cc(O)c2cc(O)c(-c3cc(O)c(O)c(O)c3)[o+]c2c1; assay: as above; type: biochemical, Camellia sinensis; settings: 1 mM UDP-galactose, pH 8.0, 30°C, 10 min, galactosyl transfer
Source text: as §1

[11] = substrate: O=c1ccn([C@@H]2O[C@H](COP(=O)(O)OP(=O)(O)O[C@H]3O[C@H](CO)[C@H](O)[C@H](O)[C@H]3O)[C@@H](O)[C@H]2O)c(=O)[nH]1; assay: as above; type: biochemical, Camellia sinensis; settings: co-substrate delphinidin, pH 8.0, 30°C, 10 min, galactosyl transfer
Source text: as §1

[12] = substrate: O=c1ccn([C@@H]2O[C@H](CO[P@@](=O)(O)O[P@@](=O)(O)O[C@H]3O[C@H](CO)[C@@H](O)[C@H](O)[C@H]3O)[C@@H](O)[C@H]2O)c(=O)[nH]1; assay: as above; type: biochemical, Camellia sinensis; settings: 100 μM Q-g-r (rutin), 50 mM phosphate pH 8.0, 30°C, 10 min
Source text: as §1

Molecule	relative enzymatic activity (CsFGT (rCsFGT) [1])	relative enzymatic activity (CsFGT (rCsFGT) [2])	relative enzymatic activity (CsFGT (rCsFGT) [3])	relative enzymatic activity (CsFGT (rCsFGT) [4])	relative enzymatic activity (CsFGT (rCsFGT) [5])	relative enzymatic activity (CsFGT (rCsFGT) [6])	relative enzymatic activity (CsFGT (rCsFGT) [7])	relative enzymatic activity (CsFGT (rCsFGT) [8])	Km [9] [µM]	kcat/Km [9] [M⁻¹ s⁻¹]	Km [10] [µM]	kcat/Km [10] [M⁻¹ s⁻¹]	Km [11] [µM]	kcat/Km [11] [M⁻¹ s⁻¹]	Km [12] [µM]	kcat/Km [12] [M⁻¹ s⁻¹]
C[C@@H]1O[C@@H](OC[C@H]2O[C@@H](Oc3c(-c4ccc(O)c(O)c4)oc4cc(O)cc(O)c4c3=O)[C@H](O)[C@@H](O)[C@@H]2O)[C@H](O)[C@H](O)[C@H]1O [Q-g-r]	E292T, Q352A, and Q352I mutants exhibited significantly decreased activity	mutants with activity unchanged or enhanced (G290A, S291G, E292Q, R319N, and R319P)	mutants with activity unchanged or enhanced (G290A, S291G, E292Q, R319N, and R319P)	E292T, Q352A, and Q352I mutants exhibited significantly decreased activity	E292T, Q352A, and Q352I mutants exhibited significantly decreased activity	the mutant R319N had significantly enhanced activity	mutants with activity unchanged or enhanced (G290A, S291G, E292Q, R319N, and R319P)	mutants with activity unchanged or enhanced (G290A, S291G, E292Q, R319N, and R319P)								
CsFGT (rCsFGT) (Camellia sinensis) (protein, N-terminal 6xHis-trigger factor fusion (pCold-TF), about 105 kDa; E. coli Origami (DE3); tag not removed for kinetics) MERDIHAALVPFVAFGHLIPFYELSIALAKAGIHVSFISTRNNIQRLPPLPPHLSSLITFVPLSWSTVGTNLLPEGIEATADILPDNFEHLMAAFDLLKHPFKQFVIEQSPDWIISDFVSYWTVDVAKECHIPLVIFSARSAATNVFFGPPEYLSGNGQRRLRSSPEDLTSPPWWVSFRSSVHYRRYEAIGAIAGFYTANASGISGAERVGRTLDGCRALAIRSCREFEGEYFDLFGKIMGNKRVIPTGVLLPEKPKKTPTAAAHNAEWSKIFEWLDEQKPKSVVFVGFGSECKFSRDQVYEIASGLESSELPFLWALRKPSWASDDLDTMPPDFGRRTSGRGKVSIGWAPQIEILAHPSIGGSLVHAGWGSVVESLRFGHCMVVLPLIADQPLNARLLVEKGLAIEVERGEDGSFCGNNIALCLRKSMASKEGDEMRTRVEKAAVIFRDQKLHHQYVDEFVEYLKNGK									50.3 ± 9.7	610000	902.5 ± 109.0	24000	1143.3 ± 313.5	3100	209.7 ± 43.9	110000
